These are literature values, as cited in US20060217894A1, “Use of computationally derived protein structures of genetic polymorphisms in pharmacogenomics for drug design and clinical applications” (priority 1999, published 2006).

The data set addresses NS3 protease (Hepatitis C virus genotype 1b, UniProt P26663). The note with it: values obtained from literature (Ingallinella et al. 1998).

NS3 protease, sequence (P26663 1027-1657, other chains not shown): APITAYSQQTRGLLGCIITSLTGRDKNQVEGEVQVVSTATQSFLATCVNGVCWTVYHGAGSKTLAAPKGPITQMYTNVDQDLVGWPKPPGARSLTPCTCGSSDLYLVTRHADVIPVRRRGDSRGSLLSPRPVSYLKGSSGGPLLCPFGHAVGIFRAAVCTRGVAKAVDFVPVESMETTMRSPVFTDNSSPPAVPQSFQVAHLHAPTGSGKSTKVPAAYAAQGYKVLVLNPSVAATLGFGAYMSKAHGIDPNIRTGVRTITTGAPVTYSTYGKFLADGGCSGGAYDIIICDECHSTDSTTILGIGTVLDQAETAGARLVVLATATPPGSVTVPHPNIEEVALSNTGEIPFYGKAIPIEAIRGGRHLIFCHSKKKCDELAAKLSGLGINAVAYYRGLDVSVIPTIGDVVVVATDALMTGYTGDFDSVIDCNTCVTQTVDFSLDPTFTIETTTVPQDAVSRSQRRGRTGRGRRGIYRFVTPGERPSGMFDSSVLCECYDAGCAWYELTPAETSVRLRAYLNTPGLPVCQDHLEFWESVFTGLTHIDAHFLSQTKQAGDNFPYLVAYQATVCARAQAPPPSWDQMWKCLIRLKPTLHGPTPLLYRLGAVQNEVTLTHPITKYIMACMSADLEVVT

The term IC50 denotes the point on the concentration scale where inhibition reaches its midpoint. On to “Ac-Asp^1-D-Glu^2-Leu^3-Ile^4-Cha^5-Cys^6-COO-”, for which the half-inhibitory concentration (IC50) is 15 nM.
Turning to “Ac-Asp^1-L-Glu^2-Leu^3-Ile^4-Cha^5-Cys^6-COO-”, the half-maximal inhibitory concentration (IC50) was 60 nM.
